Measured values reported in publication PMC12808100, “The non-catalytic DNA polymerase ε subunit is an NPF motif recognition protein” (Nature Communications, 2025).
Residues, ends and D or L forms follow the SMILES beside them.

Legend:
RFT1 = RFT1 (Homo sapiens, UniProt Q96AA3); assay: nHU-MS peptide bait, prey RFT1
HA-MBP-POLE2 = molecular target: T1, HA-MBP-POLE2 (Homo sapiens, UniProt P56282); assay: Titration nHU, Western blot, HA-MBP-POLE2 in 293T cell extract; format: binding; conditions: MBP-tagged POLE2, depending on the experimental setup, authors' rebuttal; read-out: dissociation constants
T1 construct: POLE2: UniProt ID P56282, residues 1-527; expressed in transfected cells; host or cells: HEK293T
T1 sequence (P56282 whole entry, the tested form may be a part): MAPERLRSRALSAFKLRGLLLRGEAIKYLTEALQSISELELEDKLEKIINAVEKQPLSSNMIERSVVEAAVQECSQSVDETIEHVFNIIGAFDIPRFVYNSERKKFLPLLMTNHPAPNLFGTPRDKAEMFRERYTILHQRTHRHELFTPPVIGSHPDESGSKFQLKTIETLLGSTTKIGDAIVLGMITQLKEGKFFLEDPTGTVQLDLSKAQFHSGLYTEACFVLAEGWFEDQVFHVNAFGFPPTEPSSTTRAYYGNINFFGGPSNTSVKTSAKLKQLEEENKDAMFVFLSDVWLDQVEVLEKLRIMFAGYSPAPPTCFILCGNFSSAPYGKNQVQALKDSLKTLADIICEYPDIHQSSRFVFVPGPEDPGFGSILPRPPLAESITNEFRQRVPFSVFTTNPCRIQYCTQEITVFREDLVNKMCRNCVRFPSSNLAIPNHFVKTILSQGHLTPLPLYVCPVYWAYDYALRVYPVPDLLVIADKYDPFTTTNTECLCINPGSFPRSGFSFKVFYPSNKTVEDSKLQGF
Text: (§1) To identify the partners of NPF motifs, we used the native holdup (nHU) assay that was recently developed by our team (Fig. 1B). The holdup approach has been extensively used to determine equilibrium dissociation constants of transient interactions mediated by PDZ and SH3 domains, 14-3-3, and human papilloma virus E6 proteins, and even nucleic acid-protein interactions[7],[30]–[35]. In the nHU experiments, a purified bait molecule, or a control compound, is immobilized on a resin at high concentration (typically 10 μM, or higher) and these resin stocks are subsequently mixed with dilute cell extracts. […] This liquid phase contains the unbound prey molecules at near binding equilibrium that can be quantified using selective and quantitative analytical approaches, such as mass spectrometry. Therefore, proteins that interact with the bait molecule will appear to be depleted in the solvent phase and by measuring its relative concentration compared to the control nHU experiment, the degree of binding (θ) can be determined that can be converted to apparent steady-state dissociation constants, according to:1 θ=1−Ifree/Itot=Cbait/Cbait+Kapp where Itot and Ifree are the measured total and bait-depleted equilibrium mass spectrometry total ion intensities of prey proteins, Cbait is the bait molecule concentration and Kapp is the apparent dissociation constant. […]

DDX18 = DDX18 (Homo sapiens, UniProt Q9NVP1); assay: nHU-MS peptide bait, prey DDX18
DDX18, sequence (Q9NVP1 whole entry): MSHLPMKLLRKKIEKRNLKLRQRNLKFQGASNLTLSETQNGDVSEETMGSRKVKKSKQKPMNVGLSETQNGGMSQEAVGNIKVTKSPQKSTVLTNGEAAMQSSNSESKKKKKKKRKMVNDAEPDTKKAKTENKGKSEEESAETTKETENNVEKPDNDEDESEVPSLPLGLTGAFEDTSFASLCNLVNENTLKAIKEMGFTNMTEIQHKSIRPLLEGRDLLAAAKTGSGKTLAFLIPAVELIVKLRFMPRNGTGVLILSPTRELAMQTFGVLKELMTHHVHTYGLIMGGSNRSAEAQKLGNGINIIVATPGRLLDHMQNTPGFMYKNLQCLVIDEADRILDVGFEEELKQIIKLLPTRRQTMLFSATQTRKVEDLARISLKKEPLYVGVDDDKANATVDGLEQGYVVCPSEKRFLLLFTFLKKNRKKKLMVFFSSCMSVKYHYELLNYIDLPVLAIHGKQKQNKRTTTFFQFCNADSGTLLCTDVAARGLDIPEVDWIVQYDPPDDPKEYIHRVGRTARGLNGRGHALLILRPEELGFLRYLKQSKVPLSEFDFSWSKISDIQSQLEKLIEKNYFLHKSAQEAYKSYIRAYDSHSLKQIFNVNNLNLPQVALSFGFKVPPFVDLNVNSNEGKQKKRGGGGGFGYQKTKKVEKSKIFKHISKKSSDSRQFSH

CD2AP = CD2AP (Homo sapiens, UniProt Q9Y5K6); assay: nHU-MS peptide bait, prey CD2AP
CD2AP, sequence (Q9Y5K6 whole entry): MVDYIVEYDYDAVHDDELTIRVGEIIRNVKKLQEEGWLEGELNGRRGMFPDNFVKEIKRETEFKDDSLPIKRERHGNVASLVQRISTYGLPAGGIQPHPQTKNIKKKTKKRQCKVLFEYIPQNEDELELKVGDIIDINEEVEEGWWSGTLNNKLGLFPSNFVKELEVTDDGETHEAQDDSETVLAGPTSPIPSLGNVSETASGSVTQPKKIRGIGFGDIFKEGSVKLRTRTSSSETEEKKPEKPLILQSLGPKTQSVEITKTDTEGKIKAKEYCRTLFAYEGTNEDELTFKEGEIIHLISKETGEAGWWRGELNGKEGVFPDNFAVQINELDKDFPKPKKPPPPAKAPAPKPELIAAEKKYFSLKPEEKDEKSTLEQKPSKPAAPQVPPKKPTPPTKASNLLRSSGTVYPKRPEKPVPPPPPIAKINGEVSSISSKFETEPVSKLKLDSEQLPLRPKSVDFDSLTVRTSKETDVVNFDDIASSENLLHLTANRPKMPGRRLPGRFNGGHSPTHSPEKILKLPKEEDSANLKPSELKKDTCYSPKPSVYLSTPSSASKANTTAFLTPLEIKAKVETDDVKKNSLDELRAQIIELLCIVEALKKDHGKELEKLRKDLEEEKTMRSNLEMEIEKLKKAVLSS

GTPBP4 = GTPBP4 (Homo sapiens, UniProt Q9BZE4); assay: nHU-MS peptide bait, prey GTPBP4
HA-POLE2 = molecular target: T2, HA-POLE2 (Homo sapiens, UniProt P56282); assay: Titration nHU, Western blot, HA-POLE2 in 293T cell extract; format: binding; conditions: HA-tagged POLE2, range over assays, authors' rebuttal; read-out: dissociation constant
T2 construct: POLE2: UniProt ID P56282, residues 1-527; expressed in transfected cells; host or cells: HEK293T
T2 sequence (P56282 whole entry, the tested form may be a part): as the sequence (P56282 whole entry, the tested form may be a part) above
Text: as §1

HP1BP3 = HP1BP3 (Homo sapiens, UniProt Q5SSJ5); assay: nHU-MS peptide bait, prey HP1BP3
HP1BP3, sequence (Q5SSJ5 whole entry): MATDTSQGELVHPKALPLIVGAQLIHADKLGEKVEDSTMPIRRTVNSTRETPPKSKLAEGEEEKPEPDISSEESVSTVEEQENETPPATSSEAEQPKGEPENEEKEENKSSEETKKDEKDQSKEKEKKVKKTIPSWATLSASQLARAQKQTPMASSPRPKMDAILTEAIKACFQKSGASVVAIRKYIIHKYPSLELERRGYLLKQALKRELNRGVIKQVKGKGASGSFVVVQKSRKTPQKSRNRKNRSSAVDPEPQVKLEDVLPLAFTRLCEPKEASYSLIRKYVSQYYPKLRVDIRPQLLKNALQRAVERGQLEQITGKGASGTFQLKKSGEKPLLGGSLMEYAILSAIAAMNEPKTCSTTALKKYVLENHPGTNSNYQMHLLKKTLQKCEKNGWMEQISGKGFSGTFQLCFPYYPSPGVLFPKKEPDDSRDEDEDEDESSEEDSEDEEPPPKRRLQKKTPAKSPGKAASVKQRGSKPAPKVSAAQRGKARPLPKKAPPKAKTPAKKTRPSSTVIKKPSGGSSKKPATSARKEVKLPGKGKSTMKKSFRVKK

EPS15 = molecular target: T3, EPS15 (Homo sapiens, UniProt P42566); assay: Titration nHU, Western blot, endogenous EPS15 in Jurkat extract; format: binding; conditions: source data of Fig 5, titration nHU, unit inferred
T3 construct: endogenous in cells; host or cells: Jurkat E6.1
T3 sequence (P42566 1-896): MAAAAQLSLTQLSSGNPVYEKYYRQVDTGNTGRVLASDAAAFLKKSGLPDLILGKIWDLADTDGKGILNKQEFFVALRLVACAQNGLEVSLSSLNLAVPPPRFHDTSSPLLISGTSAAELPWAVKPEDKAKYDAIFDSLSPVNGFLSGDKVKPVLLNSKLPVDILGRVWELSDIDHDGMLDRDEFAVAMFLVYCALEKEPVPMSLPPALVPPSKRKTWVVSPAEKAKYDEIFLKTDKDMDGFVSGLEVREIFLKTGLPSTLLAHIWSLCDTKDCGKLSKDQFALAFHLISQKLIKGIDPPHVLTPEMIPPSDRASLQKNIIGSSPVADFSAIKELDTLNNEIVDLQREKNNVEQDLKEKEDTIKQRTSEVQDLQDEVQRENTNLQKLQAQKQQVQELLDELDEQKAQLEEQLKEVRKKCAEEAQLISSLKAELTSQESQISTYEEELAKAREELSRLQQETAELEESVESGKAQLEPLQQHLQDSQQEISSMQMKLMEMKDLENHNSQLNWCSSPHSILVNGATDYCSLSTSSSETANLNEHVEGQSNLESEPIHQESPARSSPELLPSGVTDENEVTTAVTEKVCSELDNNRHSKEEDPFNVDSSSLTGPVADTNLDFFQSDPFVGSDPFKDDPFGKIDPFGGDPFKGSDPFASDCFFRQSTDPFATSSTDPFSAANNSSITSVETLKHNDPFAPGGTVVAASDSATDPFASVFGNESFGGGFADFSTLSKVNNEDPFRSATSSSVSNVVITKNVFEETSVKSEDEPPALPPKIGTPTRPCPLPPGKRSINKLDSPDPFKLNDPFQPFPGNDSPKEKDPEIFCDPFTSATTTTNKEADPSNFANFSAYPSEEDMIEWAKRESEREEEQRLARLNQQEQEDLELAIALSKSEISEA
Text: To identify the partners of NPF motifs, we used the native holdup (nHU) assay that was recently developed by our team (Fig. 1B). The holdup approach has been extensively used to determine equilibrium dissociation constants of transient interactions mediated by PDZ and SH3 domains, 14-3-3, and human papilloma virus E6 proteins, and even nucleic acid-protein interactions[7],[30]–[35]. In the nHU experiments, a purified bait molecule, or a control compound, is immobilized on a resin at high concentration (typically 10 μM, or higher) and these resin stocks are subsequently mixed with dilute cell extracts. After a relatively long incubation, i.e., 2 h at 4 °C, the liquid phase is separated by centrifugation. This liquid phase contains the unbound prey molecules at near binding equilibrium that can be quantified using selective and quantitative analytical approaches, such as mass spectrometry. Therefore, proteins that interact with the bait molecule will appear to be depleted in the solvent phase and by measuring its relative concentration compared to the control nHU experiment, the degree of binding (θ) can be determined that can be converted to apparent steady-state dissociation constants, according to:1 θ=1−Ifree/Itot=Cbait/Cbait+Kapp where Itot and Ifree are the measured total and bait-depleted equilibrium mass spectrometry total ion intensities of prey proteins, Cbait is the bait molecule concentration and Kapp is the apparent dissociation constant.
Jurkat E6.1 cells (ECACC #88042803, RRID: CVCL_0367) were grown in RPMI (Gibco) medium completed with 10% FBS (Gibco BRL) and 40 μg/ml gentamicin (Gibco/Life Technology). To prepare total cell extracts, Jurkat cells were seeded onto T-175 flasks and grew until 3 × 10^6 cells/ml confluency. Cells were collected by 1000 g x 5 min centrifugation, washed with PBS and then lysed in ice-cold lysis buffer (Hepes-KOH pH 7.5 50 mM, NaCl 150 mM, Triton X-100 1%, cOmplete EDTA-free protease inhibitor cocktail 5x, TCEP 5 mM, glycerol 10%).
Cell suspensions were sonicated 4×20 sec with 1 sec long pulse on ice, then incubated rotating at 4 °C for 30 min. The lysates were centrifuged at 12,000 rpm 4 °C for 20 min and supernatant was kept. Total protein concentration was measured by standard Bradford method (Bio-Rad Protein Assay Dye Reagent #5000006) using a BSA calibration curve (MP Biomedicals #160069, diluted in lysis buffer) on a Bio-Rad SmartSpec 3000 spectrophotometer instrument.
Titration holdup experiments were carried out as described above using 25 μl saturated resins prepared. Briefly, we mixed control, or bait-saturated resins at various proportions by keeping the total resin amount and resin-analyte ratio constant during the experiment (for 25 μl we used 100 μl cell extract as analyte). In titration experiments with protein baits, bait concentration was determined as described above for the saturated resin stocks. Experiments were carried out at 4 °C for 2 h and recovered supernatants were subjected to western blot or dot blot analysis.
For Western blot, samples were mixed with 4x Laemmli Sample Buffer in 3:1 ratio. Equal amounts of samples were loaded on 6-10% acrylamide-gels (generally 16 μg). Transfer was done into PVDF membranes using a Trans-Blot Turbo Transfer System and Trans-Blot Turbo RTA Transfer Kit (BioRad, #1704275). For Dot blot, nHU samples were directly loaded on Nitrocellulose membranes using 48 Sample vacuum manifold (Cleaver Scientific) following the manufacturer’s recommendations. […]

RFT1, sequence (Q96AA3 whole entry): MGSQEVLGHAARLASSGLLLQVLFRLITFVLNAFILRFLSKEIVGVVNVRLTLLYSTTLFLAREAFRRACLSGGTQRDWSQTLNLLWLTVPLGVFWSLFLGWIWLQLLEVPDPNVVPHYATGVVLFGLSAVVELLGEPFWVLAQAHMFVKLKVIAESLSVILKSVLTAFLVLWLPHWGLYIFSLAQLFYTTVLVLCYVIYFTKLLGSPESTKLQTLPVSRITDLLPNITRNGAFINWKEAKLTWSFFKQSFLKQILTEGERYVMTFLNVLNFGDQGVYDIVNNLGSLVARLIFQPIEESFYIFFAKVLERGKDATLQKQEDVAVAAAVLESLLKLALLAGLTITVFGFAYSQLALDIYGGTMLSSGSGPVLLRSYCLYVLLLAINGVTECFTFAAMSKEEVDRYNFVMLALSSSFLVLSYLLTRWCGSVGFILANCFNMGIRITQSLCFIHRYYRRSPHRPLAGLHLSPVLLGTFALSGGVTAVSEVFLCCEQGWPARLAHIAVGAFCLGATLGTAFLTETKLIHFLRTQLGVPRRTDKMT

CC(C)C[C@H](NC(=O)[C@H](CCCNC(=N)N)NC(=O)[C@H](C)NC(=O)[C@H](Cc1ccccc1)NC(=O)[C@@H]1CCCN1C(=O)[C@H](CC(N)=O)NC(=O)[C@H](CCCNC(=N)N)NC(=O)[C@H](CCCNC(=N)N)NC(=O)[C@H](C)NC(=O)[C@H](C)NC(=O)[C@H](C)NC(=O)[C@@H]1CCCN1C(=O)CN)C(=O)N[C@@H](CC(=O)O)C(=O)N[C@@H](CC(N)=O)C(=O)N[C@@H](CCCNC(=N)N)C(=O)N1CCC[C@H]1C(=O)N[C@@H](CCCNC(=N)N)C(N)=O [DONSON_71-88] (H-GPAAARRNPFARLDNRPR-NH2)
Kd (RFT1): 24.2 µM | BI (RFT1; prey RFT1, MS7_Varjosalo): 0.292 | Kd (HA-MBP-POLE2): 1 to 10 µM | Kd (DDX18): 29.5 µM | BI (DDX18; prey DDX18, MS2_Varjosalo): 0.2529 | Kd (CD2AP): 18.8 µM | BI (CD2AP; prey CD2AP, MS7_Varjosalo): 0.3476 | Kd (GTPBP4): 29.7 µM | BI (GTPBP4; prey GTPBP4, MS2_Varjosalo): 0.252 | Kd (HA-POLE2): 0.3 to 0.5 µM | Kd (HP1BP3): 31.2 µM | BI (HP1BP3; prey HP1BP3, MS2_Varjosalo): 0.2425 | Kd (EPS15): > 60 µM
